Earlier results in paper PMC12311865, “In Vitro Evaluation of the Potential Interactions of Zearalenone-14-sulfate and Zearalenone-14-glucuronide with Human Cytochrome P450 Enzymes, Organic Anion Transporting Polypeptides, and ATP-Binding Cassette Multidrug Transporters” (ACS Omega, 2025).

Columns and labels:
OATP2B1 = target: T1, OATP2B1 (Homo sapiens, UniProt O94956); parameters: method as in earlier report; conditions: same experimental model; ref earlier report; cited from earlier work
T1 construct: expressed in transfected cells; host or cells: A431
T1 sequence (O94956 1-709): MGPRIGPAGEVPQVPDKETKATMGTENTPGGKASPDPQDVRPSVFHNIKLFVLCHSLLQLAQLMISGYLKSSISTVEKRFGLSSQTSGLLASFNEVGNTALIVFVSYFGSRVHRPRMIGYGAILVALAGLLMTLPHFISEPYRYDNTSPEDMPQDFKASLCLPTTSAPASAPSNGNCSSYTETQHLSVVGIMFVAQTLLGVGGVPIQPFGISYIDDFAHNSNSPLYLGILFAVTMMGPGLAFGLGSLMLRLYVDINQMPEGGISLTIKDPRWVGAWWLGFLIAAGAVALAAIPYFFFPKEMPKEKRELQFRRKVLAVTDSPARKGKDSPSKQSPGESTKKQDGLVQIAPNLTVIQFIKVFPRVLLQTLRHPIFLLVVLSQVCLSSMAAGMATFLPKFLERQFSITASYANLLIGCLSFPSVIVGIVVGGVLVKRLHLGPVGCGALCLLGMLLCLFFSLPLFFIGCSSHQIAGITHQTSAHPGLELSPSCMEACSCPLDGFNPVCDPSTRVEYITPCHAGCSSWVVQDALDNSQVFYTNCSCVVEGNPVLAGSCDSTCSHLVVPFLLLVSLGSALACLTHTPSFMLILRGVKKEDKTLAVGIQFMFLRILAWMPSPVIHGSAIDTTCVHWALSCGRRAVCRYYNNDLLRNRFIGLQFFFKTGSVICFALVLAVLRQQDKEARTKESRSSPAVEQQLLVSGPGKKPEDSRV

CYP2C9 = target: T2, CYP2C9 (Homo sapiens, UniProt P11712); parameters: method as in our previous study; conditions: ref our previous study; cited from earlier work
T2 construct: purchased Merck
T2 sequence (P11712 whole entry): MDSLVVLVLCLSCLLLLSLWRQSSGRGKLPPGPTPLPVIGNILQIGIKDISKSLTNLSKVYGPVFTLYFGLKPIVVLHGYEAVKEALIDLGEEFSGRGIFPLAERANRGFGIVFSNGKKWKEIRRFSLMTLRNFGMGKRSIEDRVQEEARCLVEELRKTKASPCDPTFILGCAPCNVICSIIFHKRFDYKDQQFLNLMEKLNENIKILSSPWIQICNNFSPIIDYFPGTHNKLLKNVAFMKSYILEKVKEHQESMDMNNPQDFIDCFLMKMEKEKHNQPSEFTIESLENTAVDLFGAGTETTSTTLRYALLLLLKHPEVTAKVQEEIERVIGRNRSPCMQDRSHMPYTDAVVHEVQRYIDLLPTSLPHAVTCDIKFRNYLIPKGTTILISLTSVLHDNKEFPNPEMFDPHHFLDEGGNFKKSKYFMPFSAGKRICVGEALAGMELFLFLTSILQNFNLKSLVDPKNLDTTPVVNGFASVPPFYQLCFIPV

C[C@H]1CCCC(=O)CCC/C=C/c2cc(O)cc(O)c2C(=O)O1 [ZEN, Zearalenone]
IC50 (OATP2B1): 2.3 µM
IC50 (CYP2C9): 9.8 µM
